Values belong to the molecule of their own block, whether it stands above or below them.
Experiments:
[1] = target: T1, M-phase inducer phosphatase 2 (Homo sapiens, UniProt P30305); test: Inhibition of CDC25B
T1 sequence (P30305 whole entry): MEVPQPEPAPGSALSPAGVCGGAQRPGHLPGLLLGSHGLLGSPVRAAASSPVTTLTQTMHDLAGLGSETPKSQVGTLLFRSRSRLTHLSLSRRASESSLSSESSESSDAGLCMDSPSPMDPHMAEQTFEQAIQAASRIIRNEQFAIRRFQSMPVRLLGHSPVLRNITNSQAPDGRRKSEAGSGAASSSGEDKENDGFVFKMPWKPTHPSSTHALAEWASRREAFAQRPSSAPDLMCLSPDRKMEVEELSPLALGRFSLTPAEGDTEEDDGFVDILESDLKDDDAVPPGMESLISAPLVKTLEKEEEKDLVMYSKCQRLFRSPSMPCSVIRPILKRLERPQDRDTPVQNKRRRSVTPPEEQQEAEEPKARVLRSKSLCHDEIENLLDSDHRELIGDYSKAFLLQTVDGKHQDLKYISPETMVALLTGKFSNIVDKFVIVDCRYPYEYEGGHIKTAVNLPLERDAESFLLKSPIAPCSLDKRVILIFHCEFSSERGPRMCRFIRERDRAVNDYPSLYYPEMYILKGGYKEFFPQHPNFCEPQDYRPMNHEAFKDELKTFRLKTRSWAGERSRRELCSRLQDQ

[2] = target: T2, Tyrosine-protein phosphatase non-receptor type 11 (Homo sapiens, UniProt Q06124); test: Inhibition of SHP2
T2 sequence (Q06124 whole entry): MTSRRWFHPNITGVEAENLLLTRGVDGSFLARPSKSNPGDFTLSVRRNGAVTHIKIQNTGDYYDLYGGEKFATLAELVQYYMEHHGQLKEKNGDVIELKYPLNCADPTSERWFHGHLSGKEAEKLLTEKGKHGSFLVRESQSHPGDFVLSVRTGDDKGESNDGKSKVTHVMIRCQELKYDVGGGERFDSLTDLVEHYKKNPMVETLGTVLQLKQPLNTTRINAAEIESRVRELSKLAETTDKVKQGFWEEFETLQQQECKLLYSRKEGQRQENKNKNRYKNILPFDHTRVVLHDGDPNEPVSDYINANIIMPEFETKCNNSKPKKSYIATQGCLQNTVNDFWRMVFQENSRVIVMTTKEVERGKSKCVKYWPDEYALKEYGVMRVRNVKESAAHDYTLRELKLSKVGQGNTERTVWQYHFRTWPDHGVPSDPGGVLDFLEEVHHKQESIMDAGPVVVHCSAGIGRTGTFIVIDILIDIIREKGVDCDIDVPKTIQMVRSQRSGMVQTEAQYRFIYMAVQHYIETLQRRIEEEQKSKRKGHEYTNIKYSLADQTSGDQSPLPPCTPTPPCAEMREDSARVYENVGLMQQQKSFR

[3] = target: Tyrosine-protein phosphatase non-receptor type 6 (Homo sapiens, UniProt P29350); test: Inhibition of SHP1
Tyrosine-protein phosphatase non-receptor type 6, sequence (P29350 whole entry): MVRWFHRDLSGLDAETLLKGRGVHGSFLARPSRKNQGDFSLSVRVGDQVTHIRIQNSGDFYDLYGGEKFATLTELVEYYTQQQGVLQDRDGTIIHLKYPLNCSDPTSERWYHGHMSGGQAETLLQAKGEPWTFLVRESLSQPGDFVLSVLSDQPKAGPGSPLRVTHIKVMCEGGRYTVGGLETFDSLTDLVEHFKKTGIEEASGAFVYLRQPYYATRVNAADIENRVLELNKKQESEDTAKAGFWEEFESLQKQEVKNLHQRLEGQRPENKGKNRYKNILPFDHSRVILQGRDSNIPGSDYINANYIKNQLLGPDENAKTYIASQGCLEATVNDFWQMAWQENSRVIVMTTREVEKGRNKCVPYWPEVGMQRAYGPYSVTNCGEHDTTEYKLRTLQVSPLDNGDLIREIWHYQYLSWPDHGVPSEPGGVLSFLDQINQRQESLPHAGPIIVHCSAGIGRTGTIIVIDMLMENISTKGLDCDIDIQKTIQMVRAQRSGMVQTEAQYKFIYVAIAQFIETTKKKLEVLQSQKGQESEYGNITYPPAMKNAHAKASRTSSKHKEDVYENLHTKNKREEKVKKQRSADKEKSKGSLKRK

[4] = target: Receptor-type tyrosine-protein phosphatase F (Homo sapiens, UniProt P10586); test: Inhibition of PTP-LAR
Receptor-type tyrosine-protein phosphatase F, sequence (P10586 whole entry): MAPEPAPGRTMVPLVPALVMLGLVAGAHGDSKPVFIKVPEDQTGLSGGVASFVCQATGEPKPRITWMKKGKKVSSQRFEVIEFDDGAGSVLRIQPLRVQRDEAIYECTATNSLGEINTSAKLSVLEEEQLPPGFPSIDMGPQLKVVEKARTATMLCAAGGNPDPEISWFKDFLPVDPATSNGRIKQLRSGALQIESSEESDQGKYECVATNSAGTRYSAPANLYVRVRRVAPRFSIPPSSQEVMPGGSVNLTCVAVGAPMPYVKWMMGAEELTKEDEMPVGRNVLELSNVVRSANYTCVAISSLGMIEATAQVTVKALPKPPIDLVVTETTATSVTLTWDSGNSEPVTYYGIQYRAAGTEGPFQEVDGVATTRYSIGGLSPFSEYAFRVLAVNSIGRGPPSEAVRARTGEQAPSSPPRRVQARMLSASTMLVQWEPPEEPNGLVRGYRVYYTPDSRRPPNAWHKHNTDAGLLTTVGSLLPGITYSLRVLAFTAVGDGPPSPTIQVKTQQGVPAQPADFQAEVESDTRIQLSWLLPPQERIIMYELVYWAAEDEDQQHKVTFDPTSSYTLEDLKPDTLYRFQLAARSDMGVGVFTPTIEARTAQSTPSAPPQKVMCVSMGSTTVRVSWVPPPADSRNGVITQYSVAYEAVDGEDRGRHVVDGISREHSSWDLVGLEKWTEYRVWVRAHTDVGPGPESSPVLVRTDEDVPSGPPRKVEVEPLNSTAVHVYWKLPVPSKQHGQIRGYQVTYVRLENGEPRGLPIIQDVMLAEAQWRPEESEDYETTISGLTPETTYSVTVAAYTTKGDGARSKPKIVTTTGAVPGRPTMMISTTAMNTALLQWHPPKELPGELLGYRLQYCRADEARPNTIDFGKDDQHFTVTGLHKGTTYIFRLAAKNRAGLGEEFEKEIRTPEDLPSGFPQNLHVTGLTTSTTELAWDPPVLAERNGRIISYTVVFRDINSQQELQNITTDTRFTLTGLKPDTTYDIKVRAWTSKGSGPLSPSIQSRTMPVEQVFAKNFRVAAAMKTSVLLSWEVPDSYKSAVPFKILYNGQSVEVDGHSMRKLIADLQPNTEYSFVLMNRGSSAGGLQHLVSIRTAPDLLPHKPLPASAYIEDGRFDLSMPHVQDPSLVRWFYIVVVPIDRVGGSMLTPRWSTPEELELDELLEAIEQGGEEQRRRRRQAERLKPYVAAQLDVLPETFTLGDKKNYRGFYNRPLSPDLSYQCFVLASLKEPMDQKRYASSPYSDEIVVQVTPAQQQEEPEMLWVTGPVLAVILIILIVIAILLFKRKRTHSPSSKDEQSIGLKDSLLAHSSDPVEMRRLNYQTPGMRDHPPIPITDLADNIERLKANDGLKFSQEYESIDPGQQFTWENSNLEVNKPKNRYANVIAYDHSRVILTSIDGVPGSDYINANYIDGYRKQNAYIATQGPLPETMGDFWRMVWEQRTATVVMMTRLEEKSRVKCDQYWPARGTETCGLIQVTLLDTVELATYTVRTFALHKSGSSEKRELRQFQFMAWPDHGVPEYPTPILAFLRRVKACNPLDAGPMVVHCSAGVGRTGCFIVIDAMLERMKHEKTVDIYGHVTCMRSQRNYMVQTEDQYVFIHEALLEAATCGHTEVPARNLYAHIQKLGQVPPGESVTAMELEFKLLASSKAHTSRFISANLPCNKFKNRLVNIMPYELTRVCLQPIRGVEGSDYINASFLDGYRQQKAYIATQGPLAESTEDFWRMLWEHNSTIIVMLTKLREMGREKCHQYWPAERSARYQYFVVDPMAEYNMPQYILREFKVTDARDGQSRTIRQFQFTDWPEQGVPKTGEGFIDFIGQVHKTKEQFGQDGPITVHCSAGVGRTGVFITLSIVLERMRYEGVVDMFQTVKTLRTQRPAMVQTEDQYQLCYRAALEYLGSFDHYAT

[5] = target: T3, Tyrosine-protein phosphatase non-receptor type 1 (Homo sapiens, UniProt P18031); test: Inhibition of PTP1B
T3 sequence (P18031 whole entry): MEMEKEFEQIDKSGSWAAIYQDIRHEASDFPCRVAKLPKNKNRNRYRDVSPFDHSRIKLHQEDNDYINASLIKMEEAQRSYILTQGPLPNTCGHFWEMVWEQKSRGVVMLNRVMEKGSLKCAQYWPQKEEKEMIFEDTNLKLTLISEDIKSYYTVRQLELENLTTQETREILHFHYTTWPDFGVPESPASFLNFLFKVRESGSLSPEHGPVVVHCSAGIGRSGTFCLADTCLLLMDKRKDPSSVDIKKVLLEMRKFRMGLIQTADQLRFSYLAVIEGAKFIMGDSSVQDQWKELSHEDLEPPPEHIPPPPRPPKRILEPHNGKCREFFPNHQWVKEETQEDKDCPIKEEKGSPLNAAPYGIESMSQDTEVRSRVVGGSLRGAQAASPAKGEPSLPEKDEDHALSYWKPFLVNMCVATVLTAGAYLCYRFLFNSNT

[6] = target: T4, Tyrosine-protein phosphatase non-receptor type 2 (Homo sapiens, UniProt P17706); test: Inhibition of TCPTP
T4 sequence (P17706 whole entry): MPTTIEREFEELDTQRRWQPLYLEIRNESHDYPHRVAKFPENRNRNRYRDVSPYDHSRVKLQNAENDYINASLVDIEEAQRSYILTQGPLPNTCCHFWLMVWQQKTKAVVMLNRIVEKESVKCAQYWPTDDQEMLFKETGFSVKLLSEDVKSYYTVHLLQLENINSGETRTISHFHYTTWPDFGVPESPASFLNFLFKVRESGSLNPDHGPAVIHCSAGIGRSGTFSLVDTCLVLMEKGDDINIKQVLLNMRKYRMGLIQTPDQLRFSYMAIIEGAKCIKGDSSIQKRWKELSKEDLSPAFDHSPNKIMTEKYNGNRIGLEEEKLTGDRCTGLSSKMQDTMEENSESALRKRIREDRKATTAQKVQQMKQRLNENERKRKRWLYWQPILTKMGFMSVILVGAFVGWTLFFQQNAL

SMILES: CCOC(=O)c1n[nH]c2c1C(=O)N(c1cccc([N+](=O)[O-])c1)C2=O
IC50 [1]: Not Active

SMILES: CCOC(=O)c1n[nH]c2c1C(=O)N(c1cccc(F)c1)C2=O
IC50 [1]: Not Active

SMILES: CCOC(=O)c1n[nH]c2c1C(=O)N(c1ccc(F)cc1)C2=O
IC50 [1]: Not Active

SMILES: O=C(c1ccccc1)c1n[nH]c2c1C(=O)N(c1ccc([N+](=O)[O-])cc1)C2=O
IC50 [1]: Not Active

SMILES: CCOC(=O)c1n[nH]c2c1C(=O)N(c1ccccc1F)C2=O
IC50 [1]: Not Active

SMILES: CCOC(=O)c1n[nH]c2c1C(=O)N(c1cccc(Br)c1)C2=O
IC50 [1]: Not Active

SMILES: CCOC(=O)c1n[nH]c2c1C(=O)N(c1ccc([N+](=O)[O-])cc1)C2=O
IC50 ([1]; read-out: IC50): 31900 nM
IC50 [2]: Not Active
IC50 [3]: Not Active
IC50 [4]: Not Active
IC50 [5]: Not Active
IC50 [6]: Not Active

SMILES: CCOC(=O)c1n[nH]c2c1C(=O)N(c1ccccc1C(=O)OC)C2=O
IC50 [1]: Not Active

SMILES: CCCCCCCCCCCCCCCCCC(=O)c1nn(C)c2c1C(=O)N(c1ccccc1)C2=O
IC50 ([1]; read-out: IC50): 30000 nM

SMILES: CCOC(=O)c1n[nH]c2c1C(=O)N(c1ccc(Cl)cc1)C2=O
IC50 ([1]; read-out: IC50): 37400 nM

SMILES: CCOC(=O)c1n[nH]c2c1C(=O)N(c1ccccc1Br)C2=O
IC50 [1]: Not Active

SMILES: CCCCCCCCCCCCCCCCCC(=O)c1cc(C(=O)Nc2ccsc2C(=O)OC)[nH]n1
IC50 ([1]; read-out: IC50): 3360 nM
IC50 [2]: Not Active
IC50 [3]: Not Active
IC50 [4]: Not Active
IC50 ([5]; read-out: IC50): 7160 nM
IC50 ([6]; read-out: IC50): 18600 nM

SMILES: CCOC(=O)c1n[nH]c2c1C(=O)N(c1ccccc1OC)C2=O
IC50 [1]: Not Active

SMILES: CCOC(=O)c1n[nH]c2c1C(=O)N(c1ccc(OC)cc1)C2=O
IC50 [1]: Not Active

SMILES: CCOC(=O)c1n[nH]c2c1C(=O)N(c1ccccc1Cl)C2=O
IC50 [1]: Not Active

SMILES: CCOC(=O)c1n[nH]c2c1C(=O)N(c1cccc(Cl)c1)C2=O
IC50 [1]: Not Active

SMILES: CCCCCCCCCCCCCCCCCC(=O)c1n[nH]c2c1C(=O)N(c1ccc(C)cc1)C2=O
IC50 ([1]; read-out: IC50): 4330 nM

SMILES: CCCCCCCCCCCCCCCCCC(=O)c1cc(C(=O)Nc2ccccc2C(=O)OC)[nH]n1
IC50 ([1]; read-out: IC50): 5080 nM
IC50 [2]: Not Active
IC50 [3]: Not Active
IC50 [4]: Not Active
IC50 ([5]; read-out: IC50): 7490 nM
IC50 ([6]; read-out: IC50): 18700 nM

Next, values leading:

IC50 ([1]; read-out: IC50): 320 nM
SMILES: CCCCCCCCCCCCCCCCCC(=O)c1n[nH]c2c1C(=O)N(c1ccccc1C(F)(F)F)C2=O

IC50 ([1]; read-out: IC50): 1390 nM
SMILES: CCCCCCCCCC(=O)c1n[nH]c2c1C(=O)N(c1ccc([N+](=O)[O-])cc1)C2=O

IC50 ([1]; read-out: IC50): 500 nM
SMILES: CCCCCCCCCCCCCC(=O)c1n[nH]c2c1C(=O)N(c1ccc([N+](=O)[O-])cc1)C2=O

IC50 ([1]; read-out: IC50): 400 nM
SMILES: CCCCCCCCCCCCCCCCCC(=O)c1n[nH]c2c1C(=O)N(c1ccc([N+](=O)[O-])cc1)C2=O

IC50 ([1]; read-out: IC50): 1010 nM
SMILES: CCCCCCCCCCCCCCCCCC(=O)c1n[nH]c2c1C(=O)N(c1cccc(Br)c1)C2=O

IC50 ([1]; read-out: IC50): 960 nM
SMILES: CCCCCCCCCCCCCCCCCC(=O)c1n[nH]c2c1C(=O)N(c1ccc(Br)cc1)C2=O

IC50 ([1]; read-out: IC50): 120 nM
IC50 ([2]; read-out: IC50): 12200 nM
IC50 ([3]; read-out: IC50): 9790 nM
IC50 [4]: Not Active
IC50 ([5]; read-out: IC50): 410 nM
IC50 ([6]; read-out: IC50): 1160 nM
SMILES: CCCCCCCCCCCCCCCCCC(=O)c1cc(C(=O)Nc2ccsc2C(=O)O)[nH]n1

IC50 ([1]; read-out: IC50): 540 nM
SMILES: CCCCCCCCCCCCCCCCCC(=O)c1n[nH]c2c1C(=O)N(c1ccc(OC)cc1)C2=O

IC50 ([1]; read-out: IC50): 520 nM
SMILES: CCCCCCCCCCCCCCCCCC(=O)c1n[nH]c2c1C(=O)N(c1cccc(OC)c1)C2=O

IC50 ([1]; read-out: IC50): 1470 nM
SMILES: CCCCCCCCCCCCCCCCCC(=O)c1n[nH]c2c1C(=O)N(c1cccc(F)c1)C2=O

IC50 ([1]; read-out: IC50): 540 nM
SMILES: CCCCCCCCCCCCCCCCCC(=O)c1n[nH]c2c1C(=O)N(c1ccc(F)cc1)C2=O

IC50 ([1]; read-out: IC50): 240 nM
SMILES: CCCCCCCCCCCCCCCCCC(=O)c1n[nH]c2c1C(=O)N(c1cccc(Cl)c1)C2=O

IC50 ([1]; read-out: IC50): 160 nM
IC50 ([2]; read-out: IC50): 15200 nM
IC50 ([3]; read-out: IC50): 10600 nM
IC50 [4]: Not Active
IC50 ([5]; read-out: IC50): 350 nM
IC50 ([6]; read-out: IC50): 1300 nM
SMILES: CCCCCCCCCCCCCCCCCC(=O)c1cc(C(=O)Nc2ccccc2C(=O)O)[nH]n1

IC50 ([1]; read-out: IC50): 2920 nM
SMILES: CCCCCCCCCCCCCCCCCC(=O)c1n[nH]c2c1C(=O)N(C1CCCCC1)C2=O

IC50 ([1]; read-out: IC50): 310 nM
SMILES: CCCCCCCCCCCCCCCCCC(=O)c1n[nH]c2c1C(=O)N(c1cccc3ccccc13)C2=O

IC50 ([1]; read-out: IC50): 170 nM
SMILES: CCCCCCCCCCCCCCCCCC(=O)c1n[nH]c2c1C(=O)N(c1ccc(Cl)cc1)C2=O

IC50 ([1]; read-out: IC50): 250 nM
SMILES: CCCCCCCCCCCCCCCCCC(=O)c1n[nH]c2c1C(=O)N(c1ccccc1Br)C2=O

IC50 ([1]; read-out: IC50): 1150 nM
SMILES: CCCCCCCCCCCCCCCCCC(=O)c1n[nH]c2c1C(=O)N(c1ccc(F)c(Cl)c1)C2=O

IC50 ([1]; read-out: IC50): 410 nM
SMILES: CCCCCCCCCCCCCCCCCC(=O)c1n[nH]c2c1C(=O)N(c1ccccc1C(=O)OC)C2=O

IC50 ([1]; read-out: IC50): 490 nM
SMILES: CCCCCCCCCCCCCCCCCC(=O)c1n[nH]c2c1C(=O)N(c1ccc(C(=O)OC)cc1)C2=O

IC50 ([1]; read-out: IC50): 730 nM
SMILES: CCCCCCCCCCCCCCCCCC(=O)c1n[nH]c2c1C(=O)N(Cc1ccccc1)C2=O

IC50 ([1]; read-out: IC50): 2080 nM
SMILES: CCCCCCCCCCCCCCCCCC(=O)c1n[nH]c2c1C(=O)N(Cc1ccc(F)cc1)C2=O

IC50 ([1]; read-out: IC50): 340 nM
SMILES: CCCCCCCCCCCCCCCCCC(=O)c1n[nH]c2c1C(=O)N(c1ccsc1C(=O)OC)C2=O

IC50 ([1]; read-out: IC50): 1110 nM
SMILES: CCCCCCCCCCCCCCCCCC(=O)c1n[nH]c2c1C(=O)N(c1cccc([N+](=O)[O-])c1)C2=O

IC50 ([1]; read-out: IC50): 450 nM
SMILES: CCCCCCCCCCCCCCCCCC(=O)c1n[nH]c2c1C(=O)N(c1ccccc1F)C2=O

IC50 ([1]; read-out: IC50): 230 nM
IC50 ([2]; read-out: IC50): 9590 nM
IC50 [3]: Not Active
IC50 [4]: Not Active
IC50 ([5]; read-out: IC50): 1560 nM
IC50 ([6]; read-out: IC50): 3310 nM
SMILES: CCCCCCCCCCCCCCCCCC(=O)c1n[nH]c2c1C(=O)N(c1ccccc1)C2=O

IC50 ([1]; read-out: IC50): 2130 nM
SMILES: CCCCCCCCCCCCCCCCCC(=O)c1n[nH]c2c1C(=O)N(c1ccccc1C)C2=O

IC50 ([1]; read-out: IC50): 2600 nM
SMILES: CCCCCCCCCCCCCCCCCC(=O)c1n[nH]c2c1C(=O)N(c1cccc(C)c1)C2=O
